# ± gives the standard deviation of the averaged measurements.
# Compound: CCC1=C[C@@H]2CN(C1)Cc1c([nH]c3ccccc13)[C@@](C(=O)OC)(c1cc3c(cc1OC)N(C)[C@H]1[C@@](O)(C(=O)OC)[C@H](OC(C)=O)[C@]4(CC)C=CCN5CC[C@]31[C@@H]54)C2 [VINORELBINE]
# Test: surviving fraction relative to DMSO-only wells; higher = less growth inhibition
# Conditions: 500 nM; exposure time: 5 days
# In short: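 Viability was determined by CellTiter-Glo luminescence, expressed as surviving fraction normalised to the median of DMSO-only wells. The cells were log-phase tumour cell lines seeded at 250–500 per well in 384-well plates and, after 24 hours, exposed continuously for five days to inhibitors at 0.5, 1, 5, 10, 50, 100, 500 and 1000 nM. Three screens per line were run, keeping only lines with replicate Pearson r >0.7 and median Z' >0.3.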
row,Test System,surviving fraction
1,22RV1 PROSTATE,0.0587 ± 0.012
2,93VU HEADNECK,0.141 ± 0.015
3,143B BONE,0.039 ± 0.0028
4,A549 LUNG,0.228 ± 0.0085
5,ASKA SYNOVIAL,0.257 ± 0.03
6,BT20 BREAST,0.106 ± 0.029
7,BT549 BREAST,0.154 ± 0.043
8,CADOES1 SOFT TISSUE,0.201 ± 0.013
9,CAL51 BREAST,0.0317 ± 0.0015
10,CAL120 BREAST,0.154 ± 0.02
11,CASKI CERVIX,0.106 ± 0.012
12,CHLA90 AUTONOMIC GANGLIA,0.0883 ± 0.012
13,CME SYNOVIAL,0.275 ± 0.039
14,COLO320DM LARGE INTESTINE,0.534 ± 0.022
15,DU4475 BREAST,0.0703 ± 0.016
16,H23 LUNG,0.22 ± 0.002

row,Test System,surviving fraction
1,HCC38 BREAST,0.334 ± 0.06
2,HCC70 BREAST,0.131 ± 0.015
3,HCC78 LUNG,0.0637 ± 0.012
4,HCC202 BREAST,0.234 ± 0.056
5,HCC1806 BREAST,0.042 ± 0.001
6,HCC1954 BREAST,0.091 ± 0.0021
7,HCT15 LARGE INTESTINE,0.183 ± 0.026
8,HELA CERVIX,0.0347 ± 0.0015
9,HMLE3 BREAST,0.0317 ± 0.0067
10,HMT3552 BREAST,0.253
11,HOS BONE,0.03 ± 0.0035
12,HOSMNG BONE,0.112 ± 0.018
13,HS57T BREAST,0.0633 ± 0.0096
14,HS578T BREAST,0.173 ± 0.011
15,HSSYII SYNOVIAL,0.0458 ± 0.002
16,HT1080 SOFT TISSUE,0.038 ± 0.002

# Same assay, conditions: 1000 nM; exposure time: 5 days
row,Test System,surviving fraction
1,22RV1 PROSTATE,0.06367 ± 0.00058
2,93VU HEADNECK,0.145 ± 0.022
3,143B BONE,0.0345 ± 0.00071
4,A549 LUNG,0.274 ± 0.015
5,ASKA SYNOVIAL,0.334 ± 0.022
6,BT20 BREAST,0.09 ± 0.03
7,BT549 BREAST,0.158 ± 0.018
8,CADOES1 SOFT TISSUE,0.0913 ± 0.0064
9,CAL51 BREAST,0.0318 ± 0.0033
10,CAL120 BREAST,0.14 ± 0.0076
11,CASKI CERVIX,0.1 ± 0.0083
12,CHLA90 AUTONOMIC GANGLIA,0.0917 ± 0.0061
13,CME SYNOVIAL,0.333 ± 0.033
14,COLO320DM LARGE INTESTINE,0.293 ± 0.012
15,DU4475 BREAST,0.051 ± 0.015
16,H23 LUNG,0.1743 ± 0.0015

row,Test System,surviving fraction
1,HCC38 BREAST,0.251 ± 0.0055
2,HCC70 BREAST,0.132 ± 0.02
3,HCC78 LUNG,0.042 ± 0.011
4,HCC202 BREAST,0.205 ± 0.033
5,HCC1806 BREAST,0.041 ± 0.0053
6,HCC1954 BREAST,0.144 ± 0.025
7,HCT15 LARGE INTESTINE,0.106 ± 0.0059
8,HELA CERVIX,0.0298 ± 0.0028
9,HMLE3 BREAST,0.0373 ± 0.005
10,HMT3552 BREAST,0.221
11,HOS BONE,0.033 ± 0.0027
12,HOSMNG BONE,0.0593 ± 0.01
13,HS57T BREAST,0.0723 ± 0.0084
14,HS578T BREAST,0.185 ± 0.014
15,HSSYII SYNOVIAL,0.0588 ± 0.0063
16,HT1080 SOFT TISSUE,0.0363 ± 0.0015

# From the supplement of paper PMC6045584
